# T1: β2-GPI (Homo sapiens, UniProt P02749)
# T1 construct: β2-GPI was purified from normal human plasma as described in [35] with slight modification; from tissue; host or cells: pooled normal human plasma from healthy subjects
# T1 sequence (P02749 20-345): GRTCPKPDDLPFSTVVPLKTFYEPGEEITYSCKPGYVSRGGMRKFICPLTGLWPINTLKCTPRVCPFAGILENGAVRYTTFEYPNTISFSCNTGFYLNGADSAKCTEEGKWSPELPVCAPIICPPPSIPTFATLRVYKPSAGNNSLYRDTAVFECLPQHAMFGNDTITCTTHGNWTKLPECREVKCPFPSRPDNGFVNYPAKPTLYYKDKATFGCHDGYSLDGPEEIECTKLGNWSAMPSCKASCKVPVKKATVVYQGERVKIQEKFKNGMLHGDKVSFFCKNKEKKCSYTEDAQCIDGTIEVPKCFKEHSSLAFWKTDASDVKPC
# B1: β2-GPI: β2-Glycoprotein I purified from normal human plasma (protein, UniProt P02749 20-345, looked up)
# Beta-2-glycoprotein 1: T1 sequence (P02749 20-345)
# Legend:
# anti-β2-GPI antibodies = experiment: ELISA of the anti-β2-GPI antibodies by use of a ligand-coated plate (results in words); assay type: binding; settings: result in words; for binding of the anti-β2-GPI autoantibodies (WB-CAL-1 and EY2C9) to solid-phase ligand: ligand-coated plate
# Description: (§1) Binding to extracted lipids: A microtiter plate (Immulon 1B, Dynex Technologies Inc.) was coated with lipids extracted from LDLs (50 μg/mL, 50 μL/well) by ethanol evaporation. The wells were blocked with PBS containing 1% BSA for one hour and the wells were incubated with 30 μg/mL of β2-GPI for one hour. Then, β2-GPI binding was detected using Cof-22 and HRP-labeled anti-mouse IgG antibodies. Alternatively, an anti-β2-GPI autoantibody (Cof-22, WB-CAL-1, or EY2C9) was diluted with a 0.3% BSA-containing PBS, and the diluted antibody was added to the coated plate (1.0 μg/mL, 100 μL/well) and incubated with β2-GPI (15 μg/mL) for one hour. The binding of the antibody was detected by an HRP-labeled anti-mouse IgG /or an anti-human IgM. The color was developed with H2O2 and o-phenylenediamine, and OD was measured at 490 nm. Between these steps, extensive washing were done using PBS containing 0.05% Tween 20.
# (§2) Synthesized oxLig-1 (50 μg/mL, 50 μL/well) was adsorbed by evaporation on a polystyrene plate (Immulon 1B; Dynex Technologies Inc.), and the plate was then blocked with 1% BSA. Serum samples (diluted 1:100 with PBS containing 0.3% BSA) were incubated in the wells with β2-GPI (15 μg/mL) or other proteins for one hour at room temperature. Antibody binding was detected with HRP-labeled anti-human IgG. Further steps were performed through a method as described in “anti-β2-GPI ELISA.”
# EY2C9 = experiment: ELISA on solid-phase lipid (ligand)-coated plate: EY2C9 binding in presence of β2-GPI; set-up: species or system human; settings: for EY2C9 binding, No treatment: absorbance at 490 nm, mean ± SD (n = 3), solid-phase ligand not methylated
# Description: as §1, §2
# (§3) CL (50 μg/mL, 50 μL/well) was adsorbed on a polystyrene plate (Immulon 1B), and further steps were performed through a method as described in “ELISA for antibodies against a protein-oxLig-1 complex.”
# WB-CAL-1 = experiment: ELISA on solid-phase lipid (ligand)-coated plate: WB-CAL-1 binding in presence of β2-GPI; set-up: species or system mouse; settings: for WB-CAL-1 binding, No treatment: absorbance at 490 nm, mean ± SD (n = 3), solid-phase ligand not methylated
# Description: as §1, §2, §3
# β2-GPI [1] = molecular target: T1, β2-GPI; experiment: ELISA on solid-phase lipid (ligand)-coated plate: β2-GPI binding detected with Cof-22; settings: for β2-GPI binding (Cof-22 binding), No treatment: absorbance at 490 nm, mean ± SD (n = 3), solid-phase ligand not methylated; for β2-GPI binding to lipid: result in words (discussion)
# Description: as §1, §2, §3
# J774A.1 cells = experiment: Liposome binding to macrophages (3H-labeled liposomes, 4° C.); assay type: cell-based, murine; settings: result in words; for direct binding of liposomes to macrophages: J774A.1 cells, 2 hours at 4° C., 50 nmol lipid/well, without β2-GPI and antibody; for binding of liposomes to macrophages after methylation of the ligand: liposomes containing methylated ligand, with β2-GPI and WB-CAL-1, FIGS. 20C and 20D; for uptake of ligand-containing liposomes to J774A.1 cells in the presence of both β2-GPI and WB-CAL-1: compared with cholesteryl linoleate-liposomes (control), FIG. 20
# Description: FIG. 10. Effect of phosphatidylserine (PS) or oxLig-1 content on the binding of liposomes to macrophages. A monolayer of J774.A1 cells was incubated for 2 hours at 4° C. with Celgrosser-P medium containing ^3H-labeled liposomes (50 nmol lipid/well). Open circle represents PS-liposomes; closed circle represents PS-Chol-liposomes; open square represents oxLig-1-liposomes; and closed square represents oxLig-1-Chol-liposomes. Data are indicated as the mean± SD of triplicate samples.
# FIG. 11. β2-GPI and anti-β2-GPI monoclonal antibody-dependent binding of ligand-containing liposomes to macrophage. A monolayer of J774.A1 cells was incubated for 2 hours at 4° C. with Celgrosser-P medium containing ^3H-labeled liposomes (50 nmol lipid/well) and WB-CAL-1, in the presence or absence of β2-GPI (200 μg/ml). • A: Binding of PS-liposomes (PS: 50 mol %,) to J774.A1. cells in the presence (closed square) or absence (open square) of β2-GPI (200 μg/ml) • B: Binding of oxLig-1-liposomes (oxLig-1: 40 mol %) to J774.A1 cells in the presence (black bar) or absence (white bar) of β2-GPI (200 μg/ml). • C: A monolayer of J774.A1 cells was incubated for 2 hours at 4° C. with Celgrosser-P medium containing ^3H-labeled synthesized oxLig-1-liposomes (50 nmol lipid/well) and WB-CAL-1, in the presence or absence of β2-GPI (200 μg/ml). Binding of synthesized oxLig-1-liposomes in the absence of β2-GPI and WB-CAL-1 (open circle), binding of synthesized oxLig-1-liposomes in the presence of β2-GPI (open square), binding of synthesized oxLig-1-liposomes in the presence of WB-CAL-1 (closed square), and binding of synthesized oxLig-1-liposomes in the presence of both β2-GPI and WB-CAL-1 (closed circle). Data are indicated as the mean ± SD of triplicate samples.
# A monolayer of J774.A1 cells was incubated for 2 hours at 4° C. with Celgrosser-P medium containing [^3H]-labeled liposomes (containing a predetermined ligand, 50 nmol lipid/well). DPPS-containing liposomes (open squares), oxLig-1-containing liposomes (closed squares), oxLig-2-containing liposomes (closed circles), and 13-COOH-7KC-containing liposomes (closed triangles). Data are indicated as mean± SD of triplicate samples.
# A monolayer of J774.A1 cells was incubated for 2 hours at 4° C. with Celgrosser-P medium containing [^3H]-labeled liposomes (containing a predetermined ligand (30 mmol %), 50 nmol lipid/well) and in the presence (black bars) or absence (white bars) of β2-GPI (200 μg/mL) and WB-CAL-1 ([…]).
# A monolayer culture of murine macrophage-like cells (J774A.1) obtained from Riken Cell Bank (Tsukuba) was maintained in RPMI 1640 medium supplemented with 10% fetal carf serum (FCS). For binding experiments, the cells (8×10^5 cells/mL, RPMI1640) were dispensed in an amount of 1 mL/well into a 12-well culture plate (Sumitomo Bakelite Co., Ltd.) and were incubated for 24 hours at 37° C., then the culture broth was replaced with Celgrosser-P medium (Sumitomo Pharmaceutical Co.). After one hour of preincubation at 37° C., 50 μL of liposomes (50 nmol lipid/well) with or without β2-GPI (200 μg/mL) and WB-CAL-1 (100 μg/mL) were added to each culture, and the cells were incubated at 4° C. and/or 37° C. The wells were next washed with chilled PBS, and the cells were lysed by adding 1 mL of 0.1N NaOH. An aliquot was taken for determination of cellular proteins and of radioactivity associated with the cells. Protein concentration was determined in a manner as described above.
# APS-2 = experiment: ELISA on solid-phase lipid-coated plate: binding of antibodies of APS patient serum APS-2; set-up: species or system human; settings: Absorbance, mean ± SD, n = 3
# Description: (§4) To eliminate endogenous β2-GPI in some experiments, serum samples were passed through a heparin-Sepharose column. The effluent was dialyzed against PBS and was used for ELISAs.
# as §2, §3
# APS-1 = experiment: ELISA on solid-phase lipid-coated plate: binding of antibodies of APS patient serum APS-1; set-up: species or system human; settings: Absorbance, mean ± SD, n = 3
# Description: as §4, §2, §3
# β2-GPI [2] = experiment: ELISA on solid-phase lipid (ligand)-coated plate: β2-GPI binding detected with Cof-22; set-up: species or system human; settings: Experiment 2; Absorbance, mean ± SD, n = 3; synthesized oxLig-1-solidified plate, added protein 15 μg/mL
# Description: as §1, §2, §3
# [3] = Experiment 1, Absorbance, mean ± SD, n = 3, solid-phase lipid, β2-GPI 15 μg/mL
# [4] = Experiment 1, solid-phase lipid, β2-GPI 15 μg/mL, serum with β2-GPI removed
# [5] = Experiment 2, Absorbance, mean ± SD, n = 3, synthesized oxLig-1-solidified plate, added protein 15 μg/mL
# [6] = Experiment 2, synthesized oxLig-1-solidified plate, added protein 15 μg/mL
molecule,measurement,setting,value
"CC(C)CCC[C@@H](C)[C@H]1CC[C@H]2[C@@H]3C(=O)C=C4C[C@@H](OC(=O)CCCCCCCCCCCC(=O)O)CC[C@]4(C)[C@H]3CC[C@]12C [13-COOH-7KC, 13-oxo-13-(7-ketocholest-5-en-3β-yloxy)tridecanoic acid]",binding of the anti-β2-GPI autoantibodies (WB-CAL-1 and EY2C9) to solid-phase ligand,anti-β2-GPI antibodies,significant binding
same,"EY2C9 binding, No treatment",EY2C9,1.062 +/− 0.040
same,"WB-CAL-1 binding, No treatment",WB-CAL-1,0.336 +/− 0.027
same,"β2-GPI binding (Cof-22 binding), No treatment",β2-GPI [1],1.303 +/− 0.049
same,β2-GPI binding to lipid,β2-GPI [1],significant bonding
same,direct binding of liposomes to macrophages,J774A.1 cells,relatively low or negligible small
same,binding of liposomes to macrophages after methylation of the ligand,J774A.1 cells,substantially no binding
same,uptake of ligand-containing liposomes to J774A.1 cells in the presence of both β2-GPI and WB-CAL-1,J774A.1 cells,significantly enhanced
"CC(C)CCC[C@@H](C)[C@H]1CC[C@H]2[C@@H]3CC=C4C[C@@H](O)CC[C@]4(C)[C@H]3CC[C@]12C [cholesterol, Cholesterol, reference compound]","binding of the three antibodies (WB-CAL-1, EY2C9, mouse monoclonal anti-β2-GPI antibody) to immobilized lipid",anti-β2-GPI antibodies,did not bind
same,β2-GPI binding to lipid,β2-GPI [1],did not bind
"CC(C)CCC[C@@H](C)[C@H]1CC[C@H]2[C@@H]3C(=O)C=C4C[C@@H](O)CC[C@]4(C)[C@H]3CC[C@]12C [7-ketocholesterol, 5-cholesten-3β-ol-7-one, reference compound]","binding of the three antibodies (WB-CAL-1, EY2C9, mouse monoclonal anti-β2-GPI antibody) to immobilized lipid",anti-β2-GPI antibodies,did not bind
same,β2-GPI binding to lipid,β2-GPI [1],did not bind
"CCCCC/C=C\C/C=C\C/C=C\C/C=C\CCCC(=O)O[C@H](COC(=O)CCCCCCCCCCCCCCC)COP(=O)([O-])OCC[N+](C)(C)C [PAPC, 1-Palmitoyl-2-arachidonoyl-phosphatidylcholine, reference compound]","Binding of β2-GPI-dependent aCL, EY2C9",EY2C9; [3],0.011 ± 0.003
same,"Binding of β2-GPI-dependent aCL, APS-2",APS-2; [4],0.010 ± 0.002
same,"Binding of β2-GPI-dependent aCL, APS-1",APS-1; [4],0.000 ± 0.001
same,"Binding of β2-GPI-dependent aCL, WB-CAL-1",WB-CAL-1; [3],0.012 ± 0.001
same,"Binding of β2-GPI-dependent aCL, Cof-22",β2-GPI [1]; [3],0.019 ± 0.003
"CCCCC/C=C\C/C=C\CCCCCCCC(=O)O[C@H]1CC[C@@]2(C)C(=CC[C@H]3[C@@H]4CC[C@H]([C@H](C)CCCC(C)C)[C@@]4(C)CC[C@@H]32)C1 [Cholesteryl linoleate, reference compound]",binding of the anti-β2-GPI autoantibodies (WB-CAL-1 and EY2C9) to solid-phase ligand,anti-β2-GPI antibodies,no such binding was observed
same,"EY2C9 binding, No treatment",EY2C9,0.074 +/− 0.012
same,"WB-CAL-1 binding, No treatment",WB-CAL-1,0.056 +/− 0.002
same,"β2-GPI binding (Cof-22 binding), No treatment",β2-GPI [1],0.061 +/− 0.005
same,β2-GPI binding to lipid,β2-GPI [1],did not bind
"CC(C)CCC[C@@H](C)[C@H]1CC[C@H]2[C@@H]3C(=O)C=C4C[C@@H](OC(=O)CCCCCCCC(=O)CCC(=O)O)CC[C@]4(C)[C@H]3CC[C@]12C [oxLig-2, 4,12-dioxo-12-(7-ketocholest-5-en-3β-yloxy)dodecanoic acid]",binding of the anti-β2-GPI autoantibodies (WB-CAL-1 and EY2C9) to solid-phase ligand,anti-β2-GPI antibodies,significant binding
same,"EY2C9 binding, No treatment",EY2C9,1.018 +/− 0.121
same,"WB-CAL-1 binding, No treatment",WB-CAL-1,0.518 +/− 0.023
same,"β2-GPI binding (Cof-22 binding), No treatment",β2-GPI [1],1.002 +/− 0.084
same,β2-GPI binding to lipid,β2-GPI [1],significant bonding
same,direct binding of liposomes to macrophages,J774A.1 cells,relatively low or negligible small
same,binding of liposomes to macrophages after methylation of the ligand,J774A.1 cells,substantially no binding
same,uptake of ligand-containing liposomes to J774A.1 cells in the presence of both β2-GPI and WB-CAL-1,J774A.1 cells,significantly enhanced
B1,"Binding of protein-dependent oxLig-1 antibody, EY2C9",EY2C9; [5],1.147 ± 0.028
same,"Binding of protein-dependent oxLig-1 antibody, APS-2",APS-2; [6],0.755 ± 0.024
same,"Binding of protein-dependent oxLig-1 antibody, APS-1",APS-1; [6],1.043 ± 0.054
same,"Binding of protein-dependent oxLig-1 antibody, WB-CAL-1",WB-CAL-1; [5],0.812 ± 0.023
same,"Binding of protein-dependent oxLig-1 antibody, Cof-22",β2-GPI [2],1.007 ± 0.031
